Results as given in patent US10023570B2 (Array BioPharma, Inc., priority 2015, dated 2018).
“And” between values parts separate entries of the source, which are not always exact repeats. Equal values may be shown once. Where a name gives a salt, the structure may show the parent alone. One block for each compound: values may come before it.

Biological target: human KDR protein in HEK-293 cells (Homo sapiens (Human), UniProt P35968)
Assay: KDR Cell Assay (phospho-KDR in HEK-293 cells expressing inducible KDR)
Format: cell-based
Settings: pKDR Cell HEK 10% FBS IC50, HEK-293 cells expressing inducible KDR, VEGF stimulated
Procedure, shortened: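 HEK-293 cells with inducible human KDR were treated with compound for 1 h in DMEM (0.25% DMSO final), then lysed. Phospho-KDR was quantified by Meso Scale immunoassay, expressed as percent of control, and IC50 taken where a 4-parameter logistic fit crossed 50 POC.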

Chain of human KDR protein in HEK-293 cells (P35968 20-1356): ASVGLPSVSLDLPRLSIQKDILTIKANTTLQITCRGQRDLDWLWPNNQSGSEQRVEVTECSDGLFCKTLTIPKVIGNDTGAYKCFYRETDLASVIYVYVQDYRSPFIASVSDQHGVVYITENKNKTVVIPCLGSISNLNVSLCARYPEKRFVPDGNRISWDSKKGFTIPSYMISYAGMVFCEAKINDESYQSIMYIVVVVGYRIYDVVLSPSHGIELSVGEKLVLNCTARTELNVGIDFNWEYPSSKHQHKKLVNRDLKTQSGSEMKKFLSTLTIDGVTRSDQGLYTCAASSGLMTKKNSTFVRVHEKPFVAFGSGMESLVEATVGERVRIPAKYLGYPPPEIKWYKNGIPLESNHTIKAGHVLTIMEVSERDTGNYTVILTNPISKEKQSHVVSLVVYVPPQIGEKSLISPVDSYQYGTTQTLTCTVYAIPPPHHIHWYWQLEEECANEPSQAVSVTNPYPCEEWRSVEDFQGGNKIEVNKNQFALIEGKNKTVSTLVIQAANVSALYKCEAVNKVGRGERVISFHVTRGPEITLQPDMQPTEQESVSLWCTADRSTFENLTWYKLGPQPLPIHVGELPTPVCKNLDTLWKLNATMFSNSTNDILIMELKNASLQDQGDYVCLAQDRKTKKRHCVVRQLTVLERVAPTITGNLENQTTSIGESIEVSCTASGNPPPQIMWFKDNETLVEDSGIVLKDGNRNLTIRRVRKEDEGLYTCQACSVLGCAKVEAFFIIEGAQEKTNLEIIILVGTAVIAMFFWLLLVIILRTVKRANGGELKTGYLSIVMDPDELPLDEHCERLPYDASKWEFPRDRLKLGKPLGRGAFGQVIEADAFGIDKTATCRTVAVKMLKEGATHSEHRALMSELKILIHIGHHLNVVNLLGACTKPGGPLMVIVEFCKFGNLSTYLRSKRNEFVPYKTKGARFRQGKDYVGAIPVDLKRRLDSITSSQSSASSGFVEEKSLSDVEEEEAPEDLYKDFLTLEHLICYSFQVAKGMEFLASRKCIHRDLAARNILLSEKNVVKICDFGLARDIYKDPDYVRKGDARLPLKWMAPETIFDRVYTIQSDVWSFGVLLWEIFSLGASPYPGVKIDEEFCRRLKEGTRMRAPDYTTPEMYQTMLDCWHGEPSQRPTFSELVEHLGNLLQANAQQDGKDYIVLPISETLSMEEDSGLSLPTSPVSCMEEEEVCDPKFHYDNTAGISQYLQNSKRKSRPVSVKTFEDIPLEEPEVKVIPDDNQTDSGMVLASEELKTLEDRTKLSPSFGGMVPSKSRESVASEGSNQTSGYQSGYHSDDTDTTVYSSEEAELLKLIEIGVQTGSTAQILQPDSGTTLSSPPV

SMILES: Cn1cc(-c2cc(-c3ccc(N4CCC5(CCNCC5)CC4)nc3)c3c(C#N)cnn3c2)cn1 [Example 539, 4-(6-(3,9-diazaspiro[5.5]undecan-3-yl)pyridin-3-yl)-6-(1-methyl-1H-pyrazol-4-yl)pyrazolo[1,5-a]pyridine-3-carbonitrile dihydrochloride]
IC50: 1640 nM

SMILES: Cn1cc(-c2cc(-c3ccc(N4CCCC5(CCNCC5)C4)nc3)c3c(C#N)cnn3c2)cn1 [Example 540, 4-(6-(2,9-diazaspiro[5.5]undecan-2-yl)pyridin-3-yl)-6-(1-methyl-1H-pyrazol-4-yl)pyrazolo[1,5-a]pyridine-3-carbonitrile dihydrochloride]
IC50: 1220 nM

SMILES: Cn1cc(-c2cc(-c3ccc(N4CCC5(CCCN5)CC4)nc3)c3c(C#N)cnn3c2)cn1 [Example 541, 4-(6-(1,8-diazaspiro[4.5]decan-8-yl)pyridin-3-yl)-6-(1-methyl-1H-pyrazol-4-yl)pyrazolo[1,5-a]pyridine-3-carbonitrile dihydrochloride]
IC50: 534 nM

SMILES: Cn1cc(-c2cc(-c3ccc(N4CCCC5(CCCN5)C4)nc3)c3c(C#N)cnn3c2)cn1 (stereo not drawn) [Example 542, 4-(6-(1,7-diazaspiro[4.5]decan-7-yl)pyridin-3-yl)-6-(1-methyl-1H-pyrazol-4-yl)pyrazolo[1,5-a]pyridine-3-carbonitrile dihydrochloride]
IC50: 222 nM

SMILES: Cn1cc(-c2cc(-c3ccc(N4CCC5(CC4)CC(N)C5)nc3)c3c(C#N)cnn3c2)cn1 [Example 544, 4-(6-(2-amino-7-azaspiro[3.5]nonan-7-yl)pyridin-3-yl)-6-(1-methyl-1H-pyrazol-4-yl)pyrazolo[1,5-a]pyridine-3-carbonitrile dihydrochloride]
IC50: 234 nM

SMILES: Cn1cc(-c2cc(-c3ccc(N4CCC5(CCCNC5)C4)nc3)c3c(C#N)cnn3c2)cn1 (stereo not drawn) [Example 546, 4-(6-(2,7-diazaspiro[4.5]decan-2-yl)pyridin-3-yl)-6-(1-methyl-1H-pyrazol-4-yl)pyrazolo[1,5-a]pyridine-3-carbonitrile dihydrochloride]
IC50: 811 nM

SMILES: Cn1cc(-c2cc(-c3ccc(N4CCC5(CNC5)C4)nc3)c3c(C#N)cnn3c2)cn1 [Example 549, 4-(6-(2,6-diazaspiro[3.4]octan-6-yl)pyridin-3-yl)-6-(1-methyl-1H-pyrazol-4-yl)pyrazolo[1,5-a]pyridine-3-carbonitrile dihydrochloride]
IC50: 986 nM

SMILES: Cn1cc(-c2cc(-c3ccc(C4CN(Cc5ccccc5)C4)nc3)c3c(C#N)cnn3c2)cn1 [Example 580, 4-(6-(1-benzylazetidin-3-yl)pyridin-3-yl)-6-(1-methyl-1H-pyrazol-4-yl)pyrazolo[1,5-a]-pyridine-3-carbonitrile]
IC50: 1240 nM

SMILES: Cn1ccc(-c2cc(-c3ccc(N4CCN(Cc5ccccn5)CC4)nc3)c3c(C#N)cnn3c2)n1 [Example 588, 6-(1-methyl-1H-pyrazol-3-yl)-4-(6-(4-(pyridine-2-ylmethyl)piperazin-1-yl)pyridin-3-yl)pyrazolo[1,5-a]pyridine-3-carbonitrile]
IC50: ≥ 5000 nM

SMILES: COc1ccc(Cn2cc(-c3cc(-c4ccc(N5CCNCC5)nc4)c4c(C#N)cnn4c3)cn2)cc1 [Example 590, 6-(1-(4-methoxybenzyl)-1H-pyrazol-4-yl)-4-(6-(piperazin-1-yl)pyridin-3-yl)pyrazolo[1,5-a]pyridine-3-carbonitrile]
IC50: 1490 nM

SMILES: N#Cc1cnn2cc(-c3cnn(C4CNC4)c3)cc(-c3ccc(N4CCN(Cc5ccccc5)CC4)nc3)c12 [Example 595, 6-(1-(azetidin-3-yl)-1H-pyrazol-4-yl)-4-(6-(4-benzylpiperazin-1-yl)pyridin-3-yl)pyrazolo[1,5-a]pyridine-3-carbonitrile dihydrochloride]
IC50: 217 nM

SMILES: CC(C)N1CC(n2cc(-c3cc(-c4ccc(N5CCN(Cc6ccccc6)CC5)nc4)c4c(C#N)cnn4c3)cn2)C1 [Example 596, 4-(6-(4-benzylpiperazin-1-yl)pyridin-3-yl)-6-(1-(1-isopropylazetidin-3-yl)-1H-pyrazol-4-yl)pyrazolo[1,5-a]pyridine-3-carbonitrile]
IC50: 305 nM

SMILES: Cn1cc(-c2cc(-c3ccc(N4CCN(Cc5ccccc5)CC4)nc3)c3c(C#N)cnn3c2)c(C2CC2)n1 [Example 619, 4-(6-(4-benzylpiperazin-1-yl)pyridin-3-yl)-6-(3-cyclopropyl-1-methyl-1H-pyrazol-4-yl)pyrazolo[1,5-a]pyridine-3-carbonitrile]
IC50: ≥ 5000 nM

SMILES: Cc1ncc(-c2cc(-c3ccc(N4CCN(Cc5ccccc5)CC4)nc3)c3c(C#N)cnn3c2)o1 [Example 628, 4-(6-(4-benzylpiperazin-1-yl)pyridin-3-yl)-6-(2-methyloxazol-5-yl)pyrazolo[1,5-a]pyridine-3-carbonitrile]
IC50: ≥ 5000 nM

SMILES: Cc1cc(-c2cc(-c3ccc(N4CCN(Cc5ccccc5)CC4)nc3)c3c(C#N)cnn3c2)on1 [Example 629, 4-(6-(4-benzylpiperazin-1-yl)pyridine-3-yl)-6-(3-methylisoxazol-5-yl)pyrazolo[1,5-a]pyridine-3-carbonitrile]
IC50: ≥ 5000 nM

SMILES: Cc1cnn2cc(-c3cnn(C)c3)cc(-c3ccc(N4CCN(C(=O)[C@H](O)c5ccccc5)CC4)nc3)c12 [Example 652, (R)-2-hydroxy-1-(4-(5-(3-methyl-6-(1-methyl-1H-pyrazol-4-yl)pyrazolo[1,5-a]pyridin-4-yl)pyridin-2-yl)piperazin-1-yl)-2-phenyl ethan-1-one]
IC50: 1700 nM

SMILES: CCc1cnn2cc(-c3cnn(C)c3)cc(-c3ccc(N4CCN(C(=O)[C@H](O)c5ccccc5)CC4)nc3)c12 [Example 658, (R)-1-(4-(5-(3-ethyl-6-(1-methyl-1H-pyrazol-4-yl)pyrazolo[1,5-a]pyridin-4-yl)pyridin-2-yl)piperazin-1-yl)-2-hydroxy-2-phenylethanone]
IC50: 1840 nM

SMILES: COc1ncc(C(=O)N2C3CC2CN(c2ccc(-c4cc(-c5cnn(C)c5)cn5ncc(C#N)c45)cn2)C3)cc1F [Example 688, 4-(6-(6-(5-fluoro-6-methoxynicotinoyl)-3,6-diazabicyclo[3.1.1]heptheptan-3-yl)pyridin-3-yl)-6-(1-methyl-1H-pyrazol-4-yl)pyrazolo[1,5-a]pyridine-3-carbonitrile]
IC50: 50.9 nM

SMILES: Cn1cc(-c2cc(-c3ccc(N4CC5CC(C4)N5Cc4ccccn4)nc3)c3c(C#N)cnn3c2)cn1 [Example 693, 6-(1-methyl-1H-pyrazol-4-yl)-4-(6-(6-(pyridin-2-ylmethyl)-3,6-diazabicyclo[3.1.1]heptan-3-yl)pyridin-3-yl)pyrazolo[1,5-a]pyridine-3-carbonitrile]
IC50: 1020 nM

More lines, now with the values ahead:

IC50: 374 nM
SMILES: Cn1cc(-c2cc(-c3ccc(N4CCC(Cc5ccccc5)CC4)nc3)c3c(C#N)cnn3c2)cn1 [Example 535, 4-(6-(4-benzylpiperidin-l-yl)pyridin-3-yl)-6-(1-methyl-1H-pyrazol-4-yl)pyrazolo[1,5-a]pyridine-3-carbonitrile]

IC50: 787 nM and 656 nM
SMILES: Cn1cc(-c2cc(-c3ccc(N4CCC(Cc5ccc(Cl)cc5)CC4)nc3)c3c(C#N)cnn3c2)cn1 [Example 536, 4-(6-(4-(4-chlorobenzyl)piperidin-1-yl)pyridin-3-yl)-6-(1-methyl-1H-pyrazol-4-yl)pyrazolo[1,5-a]pyridine-3-carbonitrile]

IC50: 1030 nM
SMILES: CN1CCC2(CCCN(c3ccc(-c4cc(-c5cnn(C)c5)cn5ncc(C#N)c45)cn3)C2)CC1 [Example 555, 6-(1-methyl-1H-pyrazol-4-yl)-4-(6-(9-methyl-2,9-diazaspiro[5.5]undecan-2-yl)pyridin-3-yl)pyrazolo[1,5-a]pyridine-3-carbonitrile]

IC50: 1900 nM
SMILES: CN1CCCC2(CCN(c3ccc(-c4cc(-c5cnn(C)c5)cn5ncc(C#N)c45)cn3)CC2)C1 [Example 556, 6-(1-methyl-1H-pyrazol-4-yl)-4-(6-(2-methyl-2,9-diazaspiro[5.5]undecan-9-yl)pyridin-3-yl)pyrazolo[1,5-a]pyridine-3-carbonitrile]

IC50: 802 nM
SMILES: CN1CCCC12CCCN(c1ccc(-c3cc(-c4cnn(C)c4)cn4ncc(C#N)c34)cn1)C2 (stereo not drawn) [Example 557, 4-(6-(1-methyl-1,7-diazaspiro[4.5]decan-7-yl)pyridin-3-yl)-6-(1-methyl-1H-pyrazol-4-yl)pyrazolo[1,5-a]pyridine-3-carbonitrile]

IC50: 548 nM
SMILES: Cn1cc(-c2cc(-c3ccc(N4CCC5(CN(Cc6ccccc6)C5)C4)nc3)c3c(C#N)cnn3c2)cn1 [Example 558, 4-(6-(2-benzyl-2,6-diazaspiro[3.4]octan-6-yl)pyridin-3-yl)-6-(1-methyl-1H-pyrazol-4-yl)pyrazolo[1,5-a]pyridine-3-carbonitrile]

IC50: 195 nM
SMILES: Cn1cc(-c2cc(-c3ccc(N4CCC(C(=O)NOCC5CC5)CC4)nc3)c3c(C#N)cnn3c2)cn1 [Example 563, 1-(5-(3-cyano-6-(1-methyl-1H-pyrazol-4-yl)pyrazolo[1,5-a]pyridin-4-yl)pyridin-2-yl)-N-(cyclopropylmethoxy)piperidine-4-carboxamide]

IC50: 671 nM
SMILES: Cn1cc(-c2cc(-c3ccc(C4CCCN(Cc5ccccc5)C4)nc3)c3c(C#N)cnn3c2)cn1 (stereo not drawn) [Example 581, 4-(6-(1-benzylpiperidin-3-yl)pyridine-3-yl)-6-(1-methyl-1H-pyrazol-4-yl)pyrazolo[1,5-a]pyridine-3-carbonitrile]

IC50: 561 nM
SMILES: Cn1cc(-c2cc(-c3ccc(C4CCN(Cc5ccccc5)C4)nc3)c3c(C#N)cnn3c2)cn1 (stereo not drawn) [Example 582, 4-(6-(1-benzylpyrrolidin-3-yl)pyridine-3-yl)-6-(1-methyl-1H-pyrazol-4-yl)pyrazolo[1,5-a]pyridine-3-carbonitrile]

IC50: 4680 nM
SMILES: Cn1cc(-c2cc(-c3cnc(N4CCN(Cc5ccccc5)CC4)nc3)c3c(C#N)cnn3c2)cn1 [Example 639, 4-(2-(4-benzylpiperazin-1-yl)pyrimidin-5-yl)-6-(1-methyl-1H-pyrazol-4-yl)pyrazolo[1,5-a]pyridine-3-carbonitrile]

IC50: 1680 nM
SMILES: CO[C@H]1CCN(C(=O)N2CCN(c3ccc(-c4cc(-c5cnn(C)c5)cn5ncc(Cl)c45)cn3)CC2)C1 [Example 645, (S)-(4-(5-(3-chloro-6-(1-methyl-1H-pyrazol-4-yl)pyrazolo[1,5-a]pyridin-4-yl)pyridin-2-yl)piperazin-1-yl)(3-methoxypyrrolidin-1-yl)methanone]
